According to US20240316051A1, “A PHARMACEUTICAL COMBINATION AND USE THEREOF” (Ascentage Pharma (Suzhou) Co., Ltd., priority 2021, published 2024):
Like-named read-outs stand apart in the source and are kept apart here.

Target: T1, EED (1-441)-His protein (Homo sapiens, UniProt O75530)
T1 construct: 20 nM EED (1-441)-His protein
Test: EED-H3K27Me3 peptide competition binding assay by AlphaScreen
Conditions: read-out: Alpha screen
Procedure, shortened: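 Readout was AlphaScreen emission at 615 nm after 680 nm excitation, with 10 μg/ml final each of streptavidin donor and nickel chelate acceptor beads, 1 h at RT in the dark. Beforehand, compound met the His-tagged EED(1-441) for 15 min and then biotinylated H3K27Me3(19-33) peptide for 30 min; both were added as 20 nM solutions, buffer 25 mM HEPES pH 8, Tween-20, BSA. Percent activity left was fitted to give IC50.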

T1 sequence (O75530 whole entry): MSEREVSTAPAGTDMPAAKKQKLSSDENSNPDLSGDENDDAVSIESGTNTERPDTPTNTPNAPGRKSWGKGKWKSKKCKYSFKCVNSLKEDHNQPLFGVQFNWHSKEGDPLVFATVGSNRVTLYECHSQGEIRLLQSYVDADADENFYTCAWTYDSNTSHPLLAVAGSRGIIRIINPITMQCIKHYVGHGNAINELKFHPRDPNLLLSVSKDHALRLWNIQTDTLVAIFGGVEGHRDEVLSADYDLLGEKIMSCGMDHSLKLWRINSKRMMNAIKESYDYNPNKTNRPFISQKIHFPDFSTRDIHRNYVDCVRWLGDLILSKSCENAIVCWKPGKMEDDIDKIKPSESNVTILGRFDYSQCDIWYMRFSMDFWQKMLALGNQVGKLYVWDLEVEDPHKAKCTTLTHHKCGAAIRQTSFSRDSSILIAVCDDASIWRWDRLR

IC50 (Table 4A) [nM]	IC50 (IC50 class, Table 4B) [nM]	SMILES
2.69		O=C1c2ncn3c(NCc4c(F)ccc5c4CCO5)ncc(c23)-c2cnc(C(F)(F)F)cc2CN1CCF [Compound 72, 12-(((5-fluoro-2,3-dihydrobenzofuran-4-yl)methyl)amino)-4-(2-fluoroethyl)-7-(trifluoromethyl)-4,5-dihydro-3H-2,4,8,11,12a-pentaazabenzo[4,5] cycloocta[1,2,3-cd]inden-3-one]
1.67		CN1CCC(N2Cc3cc(C(F)(F)F)ccc3-c3cnc(NCc4c(F)ccc5c4CCO5)n4cnc(c34)C2=O)CC1 [Compound 74, 12-(((5-fluoro-2,3-dihydrobenzofuran-4-yl)methyl)amino)-4-(1-methylpiperidin-4-yl)-7-(trifluoro-methyl)-4,5-dihydro-3H-2,4,11,12a-tetraazabenzo [4,5]cycloocta[1,2,3-cd]inden-3-one]
1.9		CC(F)(F)CN1Cc2nc(C(F)(F)F)ccc2-c2cnc(NCc3c(F)ccc4c3CCO4)n3cnc(c23)C1=O [Compound 77, 4-(2,2-difluoropropyl)-12-(((5-fluoro-2,3-dihydrobenzofuran-4-yl)methyl)amino)-7-(trifluoromethyl)-4,5-dihydro-3H-2,4,6,11,12a-pentaazabenzo[4,5] cycloocta[1,2,3-cd]inden-3-one]
1.7		O=C1c2ncn3c(NCc4c(F)ccc5c4CCO5)ncc(c23)-c2ccc(C(F)(F)F)cc2CN1CC(F)F [Compound 81, 4-(2,2-difluoroethyl)-12-(((5-fluoro-2,3-dihydro-benzofuran-4-yl)methyl)amino)-7-(trifluoromethyl)-4,5-dihydro-3H-2,4,11,12a-tetraazabenzo[4,5] cycloocta[1,2,3-cd]inden-3-one]
10.5		CC(F)(F)CN1Cc2cc(C(F)(F)F)ncc2-c2cnc(NCc3c(F)ccc4c3CCO4)n3cnc(c23)C1=O [Compound 82, 4-(2,2-difluoropropyl)-12-(((5-fluoro-2,3-dihydrobenzofuran-4-yl)methyl)amino)-7-(trifluoromethyl)-4,5-dihydro-3H-2,4,8,11,12a-pentaazabenzo[4,5] cycloocta[1,2,3-cd]inden-3-one]
9.95		O=C1c2ncn3c(NCc4c(F)ccc5c4CCO5)ncc(c23)-c2ccc(C(F)(F)F)cc2CN1CC(F)(F)F [Compound 83, 12-(((5-fluoro-2,3-dihydrobenzofuran-4-yl)methyl)amino)-4-(2,2,2-trifluoroethyl)-7-(trifluoromethyl)-4,5-dihydro-3H-2,4,11,12a-tetraazabenzo[4,5] cycloocta[1,2,3-cd]inden-3-one]
3.07		O=C1c2ncn3c(NCc4c(F)ccc5c4CCO5)ncc(c23)-c2cnc(C(F)(F)F)cc2CN1CC(F)(F)F [Compound 84, 12-(((5-fluoro-2,3-dihydrobenzofuran-4-yl)methyl)amino)-4-(2,2,2-trifluoroethyl)-7-(trifluoromethyl)-4,5-dihydro-3H-2,4,8,11,12a-pentaazabenzo[4,5] cycloocta[1,2,3-cd]inden-3-one]
9.82		O=C1c2ncn3c(NCc4c(F)ccc5c4CCO5)ncc(c23)-c2cnc(C(F)(F)F)cc2CN1C1CC(F)(F)C1 [Compound 85, 4-(3,3-difluorocyclobutyl)-12-(((5-fluoro-2,3-dihydrobenzofuran-4-yl)methyl)amino)-7-(trifluoro-methyl)-4,5-dihydro-3H-2,4,8,11,12a-pentaazabenzo [4,5]cycloocta[1,2,3-cd]inden-3-one]
2.56		Cc1nc2c(s1)-c1cnc(NCc3c(F)ccc4c3CCO4)n3cnc(c13)C(=O)N(C1CC1)C2 [Compound 86, 4-cyclopropyl-11-(((5-fluoro-2,3-dihydrobenzofuran-4-yl)methyl)amino)-7-methyl-4,5-dihydro-3H-8-thia-2,4,6,10,11a-pentaazacyclopenta[4,5] cycloocta[1,2,3-cd]inden-3-one]
12.3		O=C1c2ncn3c(NCc4c(F)ccc5c4CCO5)ncc(c23)-c2ccsc2CN1C1CC1 [Compound 88, 4-cyclopropyl-11-(((5-fluoro-2,3-dihydrobenzofuran-4-yl)methyl)amino)-4,5-dihydro-3H-6-thia-2,4, 10,11a-tetraazacyclopenta[4,5]cycloocta[1,2,3-cd] inden-3-one]
14		O=S1(=O)Cc2ncccc2-c2cnc(NCc3c(F)ccc4c3CCO4)n3cnc1c23 [Compound 94, 11-(((5-fluoro-2,3-dihydrobenzofuran-4-yl)methyl)amino)-4H-3-thia-2,5,10,11a-tetraazadibenzo [cd,f]azulene 3,3-dioxide]
13.1		Cc1ccc2c(n1)CS(=O)(=O)c1ncn3c(NCc4c(F)ccc5c4CCO5)ncc-2c13 [Compound 95, 11-(((5-fluoro-2,3-dihydrobenzofuran-4-yl)methyl)amino)-6-methyl-4H-3-thia-2,5,10,11a-tetraazadibenzo[cd,f]azulene 3,3-dioxide]
21.9		O=S1(=O)CCc2cc(F)ccc2-c2cnc(NCc3c(F)ccc4c3CCO4)n3cnc1c23 [Compound 96, 7-fluoro-12-(((5-fluoro-2,3-dihydrobenzofuran-4-yl)methyl)amino)-4,5-dihydro-3-thia-2,11,12a-triazabenzo[4,5]cycloocta[1,2,3-cd]indene 3,3-dioxide]
	< 10	Cc1ccc2c(n1)CN(C(C)C)C(=O)c1ncn3c(NCc4c(F)ccc5c4CCO5)ncc-2c13 [E 1, 12-(((5-fluoro-2,3-dihydrobenzofuran-4-yl)methyl)amino)-4-isopropyl-7-methyl-4,5-dihydro-3H-2,4,6,11,12a-pentaazabenzo[4,5]cycloocta[1,2,3-cd] inden-3-one]
	< 10	Cc1cc2c(cn1)-c1cnc(NCc3c(F)ccc4c3CCO4)n3cnc(c13)C(=O)N(C(C)C)C2 [E 2, 12-(((5-fluoro-2,3-dihydrobenzofuran-4-yl)methyl)amino)-4-isopropyl-7-methyl-4,5-dihydro-3H-2,4,8,11,12a-pentaazabenzo[4,5]cycloocta[1,2,3-cd] inden-3-one]
	< 10	CC(C)N1Cc2cc(C#N)ccc2-c2cnc(NCc3c(F)ccc4c3CCO4)n3cnc(c23)C1=O [E 4, 12-(((5-fluoro-2,3-dihydrobenzofuran-4-yl)methyl)amino)-4-isopropyl-3-oxo-4,5-dihydro-3H-2,4,11, 12a-tetraazabenzo[4,5]cycloocta[1,2,3-cd]indene-7-carbonitrile]
	< 10	O=C1c2ncn3c(NCc4c(F)ccc5c4CCO5)ncc(c23)-c2cnc(C(F)(F)F)cc2CN1C1CCC1 [E 5, 4-cyclobutyl-12-(((5-fluoro-2,3-dihydrobenzofuran-4-yl)methyl)amino)-7-(trifluoromethyl)-4,5-dihydro-3H-2,4,8,11,12a-pentaazabenzo[4,5] cycloocta[1,2,3-cd]inden-3-one]
	< 10	Cc1ccc2c(n1)CN(CC(F)F)C(=O)c1ncn3c(NCc4c(F)ccc5c4CCO5)ncc-2c13 [E 6, 4-(2,2-difluoroethyl)-12-(((5-fluoro-2,3-dihydro-benzofuran-4-yl)methyl)amino)-7-methyl-4,5-dihydro-3H-2,4,6,11,12a-pentaazabenzo[4,5] cycloocta[1,2,3-cd]inden-3-one]
	< 10	O=C1c2ncn3c(NCc4c(F)ccc5c4CCO5)ncc(c23)-c2ccc(C(F)(F)F)nc2CN1CC(F)F [E 8, 4-(2,2-difluoroethyl)-12-(((5-fluoro-2,3-dihydro-benzofuran-4-yl)methyl)amino)-7-(trifluoromethyl)-4,5-dihydro-3H-2,4,6, 11,12a-pentaazabenzo[4,5] cycloocta[1,2,3-cd]inden-3-one]
	< 10	Cc1cc2c(cn1)-c1cnc(NCc3c(F)ccc4c3CCO4)n3cnc(c13)C(=O)N(CC(F)F)C2 [E 9, 4-(2,2-difluoroethyl)-12-(((5-fluoro-2,3-dihydro-benzofuran-4-yl)methyl)amino)-7-methyl-4,5-dihydro-3H-2,4,8,11,12a-pentaazabenzo[4,5] cycloocta[1,2,3-cd]inden-3-one]
	< 10	Cc1cnc2n1Cc1cc(C(F)(F)F)ncc1-c1cnc(NCc3c(F)ccc4c3CCO4)n3cnc-2c13 [E 10, N-((5-fluoro-2,3-dihydrobenzofuran-4-yl)methyl)-5-methyl-8-(trifluoromethyl)-6H-2,3,5a,9,12,13a-hexaazabenzo[4,5]cyclopenta[7,8]cycloocta[1,2,3-cd]inden-13-amine]
	< 10	CC(C)N1Cc2cc(C(F)F)ncc2-c2cnc(NCc3c(F)ccc4c3CCO4)n3cnc(c23)C1=O [E 11, 7-(difluoromethyl)-12-(((5-fluoro-2,3-dihydro-benzofuran-4-yl)methyl)amino)-4-isopropyl-4,5-dihydro-3H-2,4,8,11,12a-pentaazabenzo[4,5] cycloocta[1,2,3-cd]inden-3-one]
	< 10	CCc1ccc2c(n1)CN(CC(F)(F)F)C(=O)c1ncn3c(NCc4c(F)ccc5c4CCO5)ncc-2c13 [E 12, 7-ethyl-12-(((5-fluoro-2,3-dihydrobenzofuran-4-yl)methyl)amino)-4-(2,2,2-trifluoroethyl)-4,5-dihydro-3H-2,4,6,11,12a-pentaazabenzo[4,5]cycloocta [1,2,3-cd]inden-3-one]
	< 10	CCc1ccc2c(n1)CN(CC(F)F)C(=O)c1ncn3c(NCc4c(F)ccc5c4CCO5)ncc-2c13 [E 13, 4-(2,2-difluoroethyl)-7-ethyl-12-(((5-fluoro-2,3-dihydrobenzofuran-4-yl)methyl)amino)-4,5-dihydro-3H-2,4,6,11,12a-pentaazabenzo[4,5]cycloocta [1,2,3-cd]inden-3-one]
	< 10	O=C1c2ncn3c(NCc4c(F)ccc5c4CCO5)ncc(c23)-c2ccc(C3CC3)nc2CN1CC(F)(F)F [E 14, 7-cyclopropyl-12-(((5-fluoro-2,3-dihydrobenzo-furan-4-yl)methyl)amino)-4-(2,2,2-trifluoroethyl)-4,5-dihydro-3H-2,4,6,11,12a-pentaazabenzo[4,5] cycloocta[1,2,3-cd]inden-3-one]
